One test deals with Histamine H1 receptor (Homo sapiens, UniProt P35367). The experiment in a line: Binding affinity for human cloned Histamine H1 receptor expressed in CHO cells using [3H]pyrilamine as radioligand. In kind it is cell-based.
Another test deals with D(3) dopamine receptor (Homo sapiens, UniProt P35462). The experiment in a line: Binding affinity for human cloned Dopamine receptor D3.
The target of test [1] is T1, Alpha-2C adrenergic receptor (Homo sapiens, UniProt P18825).
T1 sequence (P18825 whole entry): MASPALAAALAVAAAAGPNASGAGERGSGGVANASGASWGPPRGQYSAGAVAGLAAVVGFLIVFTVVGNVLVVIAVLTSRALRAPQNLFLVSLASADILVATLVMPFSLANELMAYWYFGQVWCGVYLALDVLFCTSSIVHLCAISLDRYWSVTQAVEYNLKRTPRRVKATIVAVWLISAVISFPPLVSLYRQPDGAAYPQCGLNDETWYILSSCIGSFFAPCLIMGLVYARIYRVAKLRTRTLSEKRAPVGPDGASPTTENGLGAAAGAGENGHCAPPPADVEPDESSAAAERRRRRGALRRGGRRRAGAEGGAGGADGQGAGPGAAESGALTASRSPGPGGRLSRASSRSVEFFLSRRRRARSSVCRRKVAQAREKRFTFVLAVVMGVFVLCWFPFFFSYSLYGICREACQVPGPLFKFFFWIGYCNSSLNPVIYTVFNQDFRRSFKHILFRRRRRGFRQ
Briefly: Binding affinity for human cloned Alpha-2C adrenergic receptor.

Test [2] deals with Serotonin 3 (5-HT3) receptor. Briefly: Binding affinity for human cloned 5-hydroxytryptamine 3 receptor. In kind it is protein-complex assay.
In the next test the test system is Rattus norvegicus. Briefly: In vivo activity in mCPP challenge test were performed in male Wistar rats by subcutaneous administration. The test is classed as functional.
Test [3] deals with D(2) dopamine receptor (Rattus norvegicus, UniProt P61169). The experiment in a line: Binding affinity for rat Dopamine receptor D2.
The target of test [4] is 5-hydroxytryptamine receptor 1D (Homo sapiens, UniProt P28221). The experiment in a line: Binding affinity for human cloned 5-hydroxytryptamine 1D receptor.
In test [5] the target is T2, Alpha-1A adrenergic receptor (Homo sapiens, UniProt P35348).
T2 sequence (P35348 whole entry): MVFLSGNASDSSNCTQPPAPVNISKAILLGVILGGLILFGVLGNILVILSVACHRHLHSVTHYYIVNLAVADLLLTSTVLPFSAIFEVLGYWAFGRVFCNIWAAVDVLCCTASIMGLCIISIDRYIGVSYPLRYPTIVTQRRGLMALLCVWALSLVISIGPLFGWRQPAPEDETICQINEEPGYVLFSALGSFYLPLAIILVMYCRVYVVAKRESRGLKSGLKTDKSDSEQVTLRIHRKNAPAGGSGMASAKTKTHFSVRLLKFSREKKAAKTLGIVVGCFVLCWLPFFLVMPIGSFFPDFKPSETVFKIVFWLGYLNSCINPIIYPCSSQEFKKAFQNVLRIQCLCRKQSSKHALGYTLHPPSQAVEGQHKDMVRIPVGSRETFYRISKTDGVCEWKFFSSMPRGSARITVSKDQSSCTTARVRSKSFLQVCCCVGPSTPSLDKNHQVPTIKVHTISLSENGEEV
The experiment in a line: Binding affinity for human cloned Alpha-1A adrenergic receptor.

Test [6] concerns the target D(2) dopamine receptor (Homo sapiens, UniProt P14416). Briefly: Binding affinity for human cloned Dopamine receptor D2L.
Test [7] concerns the target 5-hydroxytryptamine receptor 2A (Homo sapiens, UniProt P28223). The experiment in a line: biochemical. The test is classed as cell-based, L929.
Description: Binding affinity for human cloned 5-hydroxytryptamine 2A receptor expressed in L929 cells using [125I]R91150 as radioligand
Test [8] deals with T3, Alpha-2A adrenergic receptor (Homo sapiens, UniProt P08913).
T3 sequence (P08913 whole entry): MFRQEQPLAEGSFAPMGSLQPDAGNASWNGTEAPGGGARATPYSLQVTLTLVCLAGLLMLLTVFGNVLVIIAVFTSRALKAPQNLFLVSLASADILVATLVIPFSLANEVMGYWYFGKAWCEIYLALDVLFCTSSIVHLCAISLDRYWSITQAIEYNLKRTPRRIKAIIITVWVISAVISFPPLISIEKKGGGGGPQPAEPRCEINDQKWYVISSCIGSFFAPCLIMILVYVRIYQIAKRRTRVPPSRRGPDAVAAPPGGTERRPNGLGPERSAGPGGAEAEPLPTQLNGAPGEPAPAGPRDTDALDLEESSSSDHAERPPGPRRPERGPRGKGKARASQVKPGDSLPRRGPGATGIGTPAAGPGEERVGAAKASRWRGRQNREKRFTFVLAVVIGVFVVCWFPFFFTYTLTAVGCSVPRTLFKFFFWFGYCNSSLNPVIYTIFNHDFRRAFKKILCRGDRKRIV
The experiment in a line: Binding affinity for human cloned Alpha-2A adrenergic receptor.

For test [9], the target named is T4, 5-hydroxytryptamine receptor 1A (Homo sapiens, UniProt P08908).
T4 sequence (P08908 whole entry): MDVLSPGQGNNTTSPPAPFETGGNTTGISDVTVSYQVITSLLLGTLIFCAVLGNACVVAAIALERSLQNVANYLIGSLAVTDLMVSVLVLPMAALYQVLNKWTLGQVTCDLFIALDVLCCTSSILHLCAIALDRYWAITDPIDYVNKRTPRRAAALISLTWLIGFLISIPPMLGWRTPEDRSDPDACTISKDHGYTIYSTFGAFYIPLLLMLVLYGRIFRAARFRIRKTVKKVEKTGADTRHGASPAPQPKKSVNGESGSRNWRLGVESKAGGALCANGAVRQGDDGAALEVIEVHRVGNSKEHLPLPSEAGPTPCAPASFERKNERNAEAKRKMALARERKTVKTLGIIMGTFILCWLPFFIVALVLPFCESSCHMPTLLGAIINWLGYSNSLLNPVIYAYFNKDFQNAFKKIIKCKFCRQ
Briefly: Binding affinity for human cloned 5-hydroxytryptamine 1A receptor.

The target in test [10] is T5, 5-hydroxytryptamine receptor 2C (Homo sapiens, UniProt P28335).
T5 sequence (P28335 whole entry): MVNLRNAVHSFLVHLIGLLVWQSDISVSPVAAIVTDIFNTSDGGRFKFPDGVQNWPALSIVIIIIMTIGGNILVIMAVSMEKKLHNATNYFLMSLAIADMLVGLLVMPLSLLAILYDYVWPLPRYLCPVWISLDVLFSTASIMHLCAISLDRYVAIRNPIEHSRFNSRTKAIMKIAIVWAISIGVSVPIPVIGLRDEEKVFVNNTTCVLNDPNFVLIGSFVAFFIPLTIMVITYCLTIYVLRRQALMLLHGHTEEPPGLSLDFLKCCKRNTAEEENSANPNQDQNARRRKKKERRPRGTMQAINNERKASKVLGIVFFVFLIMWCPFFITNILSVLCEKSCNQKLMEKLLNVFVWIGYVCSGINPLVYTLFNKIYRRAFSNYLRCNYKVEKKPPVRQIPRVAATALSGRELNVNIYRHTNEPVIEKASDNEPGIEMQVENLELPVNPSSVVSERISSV
Briefly: Binding affinity for human cloned 5-hydroxytryptamine 2C receptor expressed in CHO cells using [3H]mesulergine as radioligand. In kind it is cell-based.

The target of another test is T6, D(4) dopamine receptor (Homo sapiens, UniProt P21917).
T6 sequence (P21917 whole entry): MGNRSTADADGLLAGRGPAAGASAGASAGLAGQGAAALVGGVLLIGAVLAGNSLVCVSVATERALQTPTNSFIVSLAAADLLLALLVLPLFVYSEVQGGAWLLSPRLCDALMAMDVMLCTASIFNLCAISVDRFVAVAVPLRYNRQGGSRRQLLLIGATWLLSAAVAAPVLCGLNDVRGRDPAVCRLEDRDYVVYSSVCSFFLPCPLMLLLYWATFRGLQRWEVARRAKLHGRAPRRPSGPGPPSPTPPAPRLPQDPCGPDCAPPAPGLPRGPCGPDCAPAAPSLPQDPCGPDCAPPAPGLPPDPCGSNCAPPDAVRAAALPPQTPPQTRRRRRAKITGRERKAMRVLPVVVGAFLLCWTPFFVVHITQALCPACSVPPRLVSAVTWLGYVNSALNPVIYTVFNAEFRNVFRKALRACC
Briefly: Binding affinity for human cloned Dopamine receptor D4.

In test [11] the target is T7, 5-hydroxytryptamine receptor 2C (Rattus norvegicus) (UniProt P08909).
T7 sequence (whole entry): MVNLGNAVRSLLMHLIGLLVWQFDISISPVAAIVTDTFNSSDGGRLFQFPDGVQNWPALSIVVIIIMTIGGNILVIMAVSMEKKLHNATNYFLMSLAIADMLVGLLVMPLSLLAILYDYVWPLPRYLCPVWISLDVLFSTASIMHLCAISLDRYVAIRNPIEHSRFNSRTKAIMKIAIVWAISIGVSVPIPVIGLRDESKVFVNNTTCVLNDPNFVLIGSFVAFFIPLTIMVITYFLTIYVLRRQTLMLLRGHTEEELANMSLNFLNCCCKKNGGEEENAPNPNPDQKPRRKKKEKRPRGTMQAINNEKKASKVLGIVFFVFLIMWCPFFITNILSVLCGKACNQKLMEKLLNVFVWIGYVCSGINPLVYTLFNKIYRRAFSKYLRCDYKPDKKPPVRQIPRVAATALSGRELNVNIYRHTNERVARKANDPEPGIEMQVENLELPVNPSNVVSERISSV
Briefly: In vivo activity in rat mCPP challenge test following p.o. administration. In kind it is functional, organism-based.

Test [12] has as its target 5-hydroxytryptamine receptor 7 (Homo sapiens, UniProt P34969). The experiment in a line: Binding affinity for human cloned 5-hydroxytryptamine 7 receptor.

Sequence of Histamine H1 receptor (P35367 whole entry): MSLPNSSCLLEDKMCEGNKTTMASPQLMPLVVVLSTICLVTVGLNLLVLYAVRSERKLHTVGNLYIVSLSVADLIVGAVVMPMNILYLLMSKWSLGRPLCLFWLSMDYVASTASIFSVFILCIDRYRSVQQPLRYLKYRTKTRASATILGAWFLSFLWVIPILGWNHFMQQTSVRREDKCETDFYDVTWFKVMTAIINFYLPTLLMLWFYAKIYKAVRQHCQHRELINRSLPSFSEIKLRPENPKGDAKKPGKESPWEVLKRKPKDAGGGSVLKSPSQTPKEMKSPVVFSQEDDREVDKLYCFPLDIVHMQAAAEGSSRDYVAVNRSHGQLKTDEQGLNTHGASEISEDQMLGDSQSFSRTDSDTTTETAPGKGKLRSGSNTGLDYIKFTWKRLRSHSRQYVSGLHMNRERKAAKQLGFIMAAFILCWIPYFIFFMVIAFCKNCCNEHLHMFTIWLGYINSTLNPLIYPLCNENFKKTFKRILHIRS
Sequence of 5-hydroxytryptamine receptor 1D (P28221 whole entry): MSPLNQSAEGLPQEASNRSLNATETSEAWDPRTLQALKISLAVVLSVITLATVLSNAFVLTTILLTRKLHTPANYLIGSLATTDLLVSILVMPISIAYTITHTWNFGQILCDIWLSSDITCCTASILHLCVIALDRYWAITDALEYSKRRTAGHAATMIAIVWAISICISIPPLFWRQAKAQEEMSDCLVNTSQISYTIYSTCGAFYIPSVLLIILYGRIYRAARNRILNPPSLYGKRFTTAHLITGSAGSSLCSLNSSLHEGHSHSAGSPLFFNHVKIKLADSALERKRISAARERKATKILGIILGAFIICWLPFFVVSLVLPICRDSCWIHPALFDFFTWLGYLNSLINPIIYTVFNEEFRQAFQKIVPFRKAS
Sequence of D(3) dopamine receptor (P35462 whole entry): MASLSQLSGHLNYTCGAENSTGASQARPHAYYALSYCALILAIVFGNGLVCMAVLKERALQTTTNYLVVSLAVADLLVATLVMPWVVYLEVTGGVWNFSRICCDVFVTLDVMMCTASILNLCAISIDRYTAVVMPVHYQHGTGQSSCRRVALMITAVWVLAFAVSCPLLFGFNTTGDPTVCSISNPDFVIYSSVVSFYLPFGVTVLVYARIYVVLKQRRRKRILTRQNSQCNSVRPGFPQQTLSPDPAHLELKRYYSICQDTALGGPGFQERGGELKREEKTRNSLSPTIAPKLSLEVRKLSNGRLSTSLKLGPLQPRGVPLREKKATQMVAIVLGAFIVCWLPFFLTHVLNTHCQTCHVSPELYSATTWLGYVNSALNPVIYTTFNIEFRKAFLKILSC
Sequence of 5-hydroxytryptamine receptor 2A (P28223 whole entry): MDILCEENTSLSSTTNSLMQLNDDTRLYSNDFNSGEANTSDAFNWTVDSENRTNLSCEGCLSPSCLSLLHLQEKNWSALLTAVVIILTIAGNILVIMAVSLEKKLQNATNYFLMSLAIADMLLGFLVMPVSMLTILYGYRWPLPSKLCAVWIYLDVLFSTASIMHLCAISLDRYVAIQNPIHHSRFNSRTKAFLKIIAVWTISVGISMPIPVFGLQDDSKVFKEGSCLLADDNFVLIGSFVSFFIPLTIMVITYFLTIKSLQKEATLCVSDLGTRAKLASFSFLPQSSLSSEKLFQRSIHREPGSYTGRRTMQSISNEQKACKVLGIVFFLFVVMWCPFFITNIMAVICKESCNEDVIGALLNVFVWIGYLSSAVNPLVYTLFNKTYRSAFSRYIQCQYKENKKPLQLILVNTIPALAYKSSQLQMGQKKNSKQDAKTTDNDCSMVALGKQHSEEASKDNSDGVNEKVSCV
Sequence of D(2) dopamine receptor (Homo sapiens, UniProt P14416) (P14416 whole entry): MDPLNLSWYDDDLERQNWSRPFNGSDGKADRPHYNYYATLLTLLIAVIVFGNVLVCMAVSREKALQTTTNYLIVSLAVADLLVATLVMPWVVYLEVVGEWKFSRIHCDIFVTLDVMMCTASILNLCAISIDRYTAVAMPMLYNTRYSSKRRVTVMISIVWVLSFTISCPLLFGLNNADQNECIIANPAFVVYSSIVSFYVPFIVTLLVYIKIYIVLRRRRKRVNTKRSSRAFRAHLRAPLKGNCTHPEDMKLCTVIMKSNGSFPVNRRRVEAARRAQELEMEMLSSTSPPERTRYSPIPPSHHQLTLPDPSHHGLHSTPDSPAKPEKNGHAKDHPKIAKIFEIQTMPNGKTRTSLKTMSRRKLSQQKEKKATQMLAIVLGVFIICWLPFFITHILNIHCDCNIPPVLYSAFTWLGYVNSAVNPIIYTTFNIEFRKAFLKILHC
Sequence of D(2) dopamine receptor (Rattus norvegicus, UniProt P61169) (P61169 whole entry): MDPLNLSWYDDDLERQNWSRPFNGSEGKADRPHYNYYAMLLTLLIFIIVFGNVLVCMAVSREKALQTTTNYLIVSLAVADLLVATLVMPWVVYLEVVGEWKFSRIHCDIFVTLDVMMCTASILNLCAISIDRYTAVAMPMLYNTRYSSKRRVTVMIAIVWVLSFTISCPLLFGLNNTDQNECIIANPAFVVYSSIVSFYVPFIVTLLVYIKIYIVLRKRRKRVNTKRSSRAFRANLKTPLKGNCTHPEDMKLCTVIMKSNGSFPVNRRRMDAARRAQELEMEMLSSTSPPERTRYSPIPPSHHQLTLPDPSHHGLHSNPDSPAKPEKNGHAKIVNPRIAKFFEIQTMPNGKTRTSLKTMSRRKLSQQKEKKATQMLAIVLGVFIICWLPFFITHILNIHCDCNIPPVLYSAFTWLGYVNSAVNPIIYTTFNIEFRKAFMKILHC
Sequence of 5-hydroxytryptamine receptor 7 (P34969 whole entry): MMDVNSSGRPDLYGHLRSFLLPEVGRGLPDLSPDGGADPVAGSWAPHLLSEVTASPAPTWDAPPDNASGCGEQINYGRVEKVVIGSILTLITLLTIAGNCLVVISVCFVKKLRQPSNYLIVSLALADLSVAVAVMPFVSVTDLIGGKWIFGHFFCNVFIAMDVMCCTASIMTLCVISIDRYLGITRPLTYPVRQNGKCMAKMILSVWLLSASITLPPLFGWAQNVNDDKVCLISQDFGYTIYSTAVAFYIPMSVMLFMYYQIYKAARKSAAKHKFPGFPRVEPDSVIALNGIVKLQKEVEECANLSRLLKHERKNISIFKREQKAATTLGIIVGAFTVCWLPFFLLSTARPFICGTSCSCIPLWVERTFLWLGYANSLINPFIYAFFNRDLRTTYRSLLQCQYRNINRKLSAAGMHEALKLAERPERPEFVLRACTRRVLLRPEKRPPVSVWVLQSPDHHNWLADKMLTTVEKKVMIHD

The term IC50 denotes the concentration at which inhibition is half-maximal. Low readings indicate greater potency, high ones weaker potency. Broadly, the pIC50 is the negative decadic logarithm of the IC50, by convention in mol/L. A high value points to a small IC50. In general, ED50 refers to the dose at which the effect has come halfway, by size or by number of responders. For `CN(C)CC1CC2c3ccccc3Cc3ccccc3N2O1` (stereo in doubt; 2a), the IC50 is 6.76 nM on Histamine H1 receptor; 170 nM on D(3) dopamine receptor; 1860 nM in test [1]; 195 nM at D(2) dopamine receptor [3]; 661 nM in test [4]; 537 nM in test [5]. In addition, the IC50 is 871 nM on D(2) dopamine receptor [6]; 22.9 nM in test [7]; 372 nM in [8]; 977 nM in [9]; 12.3 nM in test [10]; 132 nM on D(4) dopamine receptor. In test [2], this compound showed a pIC50 of 5.92. The compound also registered an ED50 in the test with Rattus norvegicus of 0.04 mg/kg.

For the compound `CNCC1CC2c3ccccc3Cc3ccccc3N2O1` (centres undefined), the IC50 is 10.7 nM on Histamine H1 receptor; 339 nM on D(3) dopamine receptor; greater than 1000 nM in test [1]; greater than 1000 nM in test [4]; 191 nM in [5]; 1700 nM at D(2) dopamine receptor [6]. The IC50 in [7] was 13.2 nM; in [12] it was 18.6 nM; in test [8], 437 nM; in test [9], greater than 1000 nM; in test [10], 7.08 nM; on D(4) dopamine receptor, 302 nM. Further, the ED50 is greater than 2.5 mg/kg in test [11] and 0.16 mg/kg in the test on Rattus norvegicus (Rattus norvegicus, sc, read-out: ED50). In addition, the pIC50 in test [2] is less than 6.
